Measured values: paper PMC9821308, “The Inhibitory Properties of a Novel, Selective LMTK3 Kinase Inhibitor” (International Journal of Molecular Sciences, 2023)

Experiments:
[1] = target: MKNK1 (Homo sapiens, UniProt Q9BUB5); assay: KINOMEscan active site-directed competition binding at […]; also radioactive filter binding assay at […]
[2] = target: MKNK2 (Homo sapiens, UniProt Q9HBH9); assay: as above
[3] = target: T1, LMTK3 (lemur tyrosine kinase 3) (Homo sapiens, UniProt Q96Q04); assay: microscale thermophoresis; also […] kinase assay on HSP27 (IC50 approximately […]); type: binding
T1 construct: LMTK3cat (LMTK3 kinase domain)
T1 sequence (Q96Q04 133-411 limits assumed): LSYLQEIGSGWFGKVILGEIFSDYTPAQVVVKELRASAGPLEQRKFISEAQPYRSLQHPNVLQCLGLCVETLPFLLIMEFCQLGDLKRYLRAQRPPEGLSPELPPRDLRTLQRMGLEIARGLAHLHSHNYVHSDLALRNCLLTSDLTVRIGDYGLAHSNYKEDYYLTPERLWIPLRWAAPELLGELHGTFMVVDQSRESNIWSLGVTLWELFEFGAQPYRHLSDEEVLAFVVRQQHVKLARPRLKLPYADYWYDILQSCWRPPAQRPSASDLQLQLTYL

[4] = target: T2, TRKA (Homo sapiens, UniProt P04629); assay: KINOMEscan active site-directed competition binding at […] ([…]); also radioactive filter binding assay at […]
T2 construct: gene NTRK1

[5] = target: PDGFRA (Homo sapiens, UniProt P16234); assay: KINOMEscan active site-directed competition binding at […]; also radioactive filter binding assay at […]
[6] = target: PIM1 (Homo sapiens, UniProt P11309); assay: as above

Kd [3]: 1.87 ± 0.2 µM
Structure (SMILES): Clc1ccc(-c2cnc3sc(NCc4cccnc4)nn23)cc1 [C36]
KINOMEscan active site-directed competition binding at 5 μM; also radioactive fi [1]: overlap of kinases targeted by C36 that have been identified via both assays (namely PIM1, TRKA, PDGFRA, MKNK1, MKNK2)
KINOMEscan active site-directed competition binding at 5 μM; also radioactive fi [2]: overlap of kinases targeted by C36 that have been identified via both assays (namely PIM1, TRKA, PDGFRA, MKNK1, MKNK2)
KINOMEscan active site-directed competition binding at 5 μM (>90%); also radioac [4]: overlap of kinases targeted by C36 that have been identified via both assays (namely PIM1, TRKA, PDGFRA, MKNK1, MKNK2)
KINOMEscan active site-directed competition binding at 5 μM; also radioactive fi [5]: overlap of kinases targeted by C36 that have been identified via both assays (namely PIM1, TRKA, PDGFRA, MKNK1, MKNK2)
KINOMEscan active site-directed competition binding at 5 μM; also radioactive fi [6]: overlap of kinases targeted by C36 that have been identified via both assays (namely PIM1, TRKA, PDGFRA, MKNK1, MKNK2)
